# Experiments:
# E2F2 = E2F2 (Homo sapiens, UniProt Q14209); assay: competition in biotin-bufalin pull-down from HepG2 lysate; format: cell-based
# [1] = target: ZFP91 (zinc finger protein 91) (Homo sapiens, UniProt Q96JP5); assay: MST; format: binding
# Chain of ZFP91 (zinc finger protein 91) (Q96JP5 2-570): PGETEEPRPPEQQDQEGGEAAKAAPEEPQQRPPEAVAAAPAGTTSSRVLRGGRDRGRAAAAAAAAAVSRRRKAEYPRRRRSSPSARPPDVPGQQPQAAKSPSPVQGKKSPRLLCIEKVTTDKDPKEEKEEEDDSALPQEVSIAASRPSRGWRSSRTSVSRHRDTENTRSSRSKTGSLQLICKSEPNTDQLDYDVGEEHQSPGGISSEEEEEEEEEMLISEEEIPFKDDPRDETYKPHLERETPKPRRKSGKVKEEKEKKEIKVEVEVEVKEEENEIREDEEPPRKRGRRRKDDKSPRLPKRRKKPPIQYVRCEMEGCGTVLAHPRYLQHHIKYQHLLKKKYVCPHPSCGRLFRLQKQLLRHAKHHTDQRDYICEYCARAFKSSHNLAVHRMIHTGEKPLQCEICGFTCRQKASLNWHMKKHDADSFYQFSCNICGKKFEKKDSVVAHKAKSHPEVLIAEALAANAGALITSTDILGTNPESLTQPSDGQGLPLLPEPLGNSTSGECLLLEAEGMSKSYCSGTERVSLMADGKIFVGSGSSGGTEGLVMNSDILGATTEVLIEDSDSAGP
# Chain of E2F2 (Q14209 whole entry): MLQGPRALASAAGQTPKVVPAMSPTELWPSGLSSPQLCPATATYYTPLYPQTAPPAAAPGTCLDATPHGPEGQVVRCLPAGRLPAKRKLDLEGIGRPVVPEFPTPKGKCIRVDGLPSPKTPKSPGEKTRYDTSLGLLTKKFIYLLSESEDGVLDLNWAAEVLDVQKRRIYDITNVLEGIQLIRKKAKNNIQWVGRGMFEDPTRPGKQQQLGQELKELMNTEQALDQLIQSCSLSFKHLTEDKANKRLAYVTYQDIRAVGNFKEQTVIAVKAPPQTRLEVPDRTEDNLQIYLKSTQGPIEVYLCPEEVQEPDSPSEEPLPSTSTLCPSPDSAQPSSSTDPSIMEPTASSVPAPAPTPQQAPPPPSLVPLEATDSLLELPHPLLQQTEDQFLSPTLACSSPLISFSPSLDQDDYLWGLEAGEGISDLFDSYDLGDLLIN
compound,measurement,setting,value
"C[C@]12CC[C@@H](O)C[C@@H]1CC[C@@H]1[C@@H]2CC[C@]2(C)C(=O)CC[C@@H]12 [DHA, androsterone]",competition in biotin-bufalin pull-down from HepG2 lysate,E2F2,DHA significantly limited the binding of biotin-bufalin to E2F2
"O=c1cccco1 [α-Pyr, α-Pyrone]",Kd,[1],900 ± 322 nM
